Where two headings read alike, the source gives them in different places.
Columns and labels:
[1] = system: human breast adenocarcinoma, MX-1; assay: Antineoplastic activity by topical application in athymic mice implanted intradermally with human breast adenocarcinoma MX-1 (Examples 7 and 8); format: in vivo; settings: 4.4 wt/wt% composition (Table 8)
Description: A composition containing 17.6% NDGA and 1% BHT in Pego 400 was tested for antineoplastic activity in athymic mice implanted with human breast adenocarcinoma, MX-1. Each animal was innoculated intradermally on the dorsum near the nape of the neck with 0.5 ml of a MX-1 homogenate. The animals were treated by topical application with the NDGA composition after day 23. Compositions containing 4.4 wt/wt% of meso and DL NDGA were tested for efficacy against the MX-1 tumor as in Example 7.

[2] = system: human lung tumor cell line LX-T; assay: Antitumor effect against human lung tumor cell line LX-T (clonogenic assay / DNA flow cytometry with DAPI, Example 5); format: cell-based
Description: The antitumor effect of NDGA against the human lung tumor cell line LX-T was determined utilizing a clonogenic assay.
Serial dilutions of the test stock solutions were made in 15 ml of Ca^2+ --and Mg^2+ --free Hank's balanced salt solution (HBSS).
The LX-T cells were incubated in the presence of various amounts of NDGA, and the antitumor effect was determined by measuring the DNA […] of the LX-T nuclei using DNA flow cytometric analysis with a DNA-specific fluorochrome, 4', 6-diamidino-2-phenylindole (DAPI).

[3] = system: human breast adenocarcinoma (MX-1); assay: Effect against human breast adenocarcinoma (MX-1)
[4] = Absorption of harmful sunlight (ultraviolet) radiation (Example 10); format: physicochemical
Description: The ability of NDGA to absorb harmful sunlight radiation was tested.

[5] = system: several types of cancer cells; settings: Leiter et al.; cited from earlier work
[6] = system: MX-1 (human breast adenocarcinoma) cells; assay: In vivo antitumor effect on MX-1 cells implanted subcutaneously in nude mice, intratumoral injection (Example 6); settings: 0.1 ml injected directly into the tumor
Description: The in vivo antitumor effect of NDGA at various survival levels was determined using MX-1 (human breast adenocarcinoma) cells implanted subcutaneously in the flank of nude mice.
Tumors which reached the 25-100 mm^2 range were used for the experiment. 0.1 ml of the test compound in solution was injected directly into the tumor. The tumors were measured periodically to determine their weight until 60 days after the initial treatment or all mice had died.

[7] = system: hepatic and colon carcinoma; assay: Treatment of hepatic and colon carcinoma
From the text: The catecholic butanes, when applied parenterally or by injection, are excreted primarily through the liver and gut, and therefore exert preferential cytotoxicity to tumors located in those organs.

tumor cells = assay: Enhancement of X-ray radiation effectiveness by topical application; settings: applied topically; without radiation toxicity to surrounding uninvolved skin
From the text: Consequently, the catecholic butanes may be useful in the treatment of cutaneous afflictions such as Kaposi's sarcoma.

human cancer patients = settings: ingested; Smart et al. 1970; cited from earlier work
[8] = system: lung squamous cell carcinoma (LX-1); assay: Effect against lung squamous cell carcinoma (LX-1); set-up: species or system human
[9] = system: CMT-12 cultured canine breast adenocarcinoma tumor cells; assay: Clonogenic assay, antiproliferative effect on CMT-12 canine breast adenocarcinoma cells (Example 3); format: cell-based; settings: for No. Tumor Colonies Surviving: one hour at 37° C
Description: The antiproliferative effect of NDGA on CMT-12 cultured canine breast adenocarcinoma tumor cells was evaluated in clonogenic (cancer cell) assays.
(§1) Single cell suspensions of tumor cells harvested from culture flasks were exposed to the different compositions of NDGA for one hour at 37° C in liquid medium, and the cells were then washed twice, suspended in agarose medium and plated and the number of colony forming cells were determined. Results are expressed as percent inhibition of survival of clonogenic cells in treated cultures relative to nontreated control cultures. Significant anticancer activity was defined as>70% inhibition of the survival of colony-forming (tumor) cells.

melanoma (B-16) = assay: Effect against melanoma (B-16); set-up: species or system mouse
[10] = Stability against oxidation; format: physicochemical; settings: for example, by air; more stable at lower pH
From the text: The pH of the formulation is important in assuring stability of the catecholic butane as well as assuring that the formulation is physiologically acceptable to the patient. […] Such oxidation can result in discoloration of the formulation rendering it unacceptable for pharmaceutical use. […] Therefore, it is preferred that if the formulation is to be exposed to oxidizing conditions the pH be maintained below about 7.5 and preferably below about 6 in order to provide maximum stability for the catechol against oxidation. However, if oxidizing conditions can be avoided, for example, by storage of the formulation under an inert atmosphere such as nitrogen, a higher pH can be used. The pH of the formulation may be maintained through the use of toxicologically-acceptable buffers. Such buffers are well known in the pharmaceutical formulation art, and include hydrochloric acid buffer, acid phthalate buffer, phosphate buffer and citric acid/sodium citrate buffer.

tumor induction by DMBA = assay: Anticarcinogenic activity in mice: NDGA+DMBA+TPA (Example 9); format: in vivo, SENCAR mice; settings: NDGA 3 mg topical, five consecutive days before DMBA and TPA
Description: (§2) Mice were exposed to dimethyl benzanthracene (DMBA), a classical tumor inducer, and to phorbol ester (TPA), a classical tumor promoter, after having been treated with NDGA.
(§3) Twenty mice were included in each of the following groups:
(§4) 1. Positive control group: DMBA+TPA. Female SENCAR mice 6-8 weeks old received a single topical application of […] of DMBA in 0.2 ml of acetone as the initiating agent. After one week, animals received twice weekly applications of tumor promoter TPA in 0.1 ml of acetone. Tumor formation was recorded weekly.
3. Anticarcinogenic activity: NDGA+DMBA+TPA. For five consecutive days animals received topical applications of NDGA (3 mg.) in 0.2 ml of acetone. 24 hours after the last treatment with NDGA, animals received DMBA and TPA exactly as in the positive control group.

TPA tumor promotion = assay: Antipromoting activity in mice: DMBA+NDGA+TPA (Example 9); format: in vivo, SENCAR mice; settings: NDGA 9 mg topical 30 minutes prior to each TPA application
Description: as §2, §3, §4
2. Antipromoting activity: DMBA+NDGA+TPA. 30 minutes prior to each application of TPA animals received topical application of NDGA (9 mg.) in 0.2 ml of acetone.

[11] = system: MC-1 equine sarcoid-derived cell line; assay: Inhibition of in vitro colony growth of MC-1 equine sarcoid-derived cell line (Example 4); format: cell-based; settings: for inhibition at 18 µM / inhibition at 27 µM / inhibition at 56 µM: Equus caballus, 336 h; for inhibition at 18 µM: 18 MicroMolar; for inhibition at 27 µM: 27 MicroMolar; for inhibition at 56 µM: 56 MicroMolar
Description: as §1
Compositions of NDGA were tested for their ability to inhibit in vitro growth of the MC-1 equine sarcoid-derived cell line, in experiments similar to those of Example 3.

[12] = Day 14, mean of 3 experiments, read-out: % Inhibition (Mean)
[13] = Day 14, read-out: Percentage Inhibition of Colony Growth, Experiment #1
[14] = Day 14, read-out: Percentage Inhibition of Colony Growth, Experiment #2
[15] = Day 14, read-out: Percentage Inhibition of Colony Growth, Experiment #3

C[C@H](Cc1ccc(O)c(O)c1)[C@H](C)Cc1ccc(O)c(O)c1 (relative stereo) [dl-NDGA]
Tumor Free 60 Days [1]: 4/5 | Tumor Recurrence [1]: 0

COc1cccc2c1C(=O)c1c(O)c3c(c(O)c1C2=O)C[C@@](O)(C(=O)CO)C[C@@H]3O[C@H]1C[C@H](N)[C@H](O)[C@H](C)O1 [Adriamycin, reference compound]
EC50 ([2]; read-out: ED(50)): 25.6 µM

O=c1[nH]cc(F)c(=O)[nH]1 [Composition 5-FU, reference compound]
EC50 ([2]; read-out: ED(50)): 102 µM

CO[C@@]12[C@H](COC(N)=O)C3=C(C(=O)C(C)=C(N)C3=O)N1C[C@@H]1N[C@@H]12 [Mutamycin, reference compound]
EC50 ([2]; read-out: ED(50)): 18.4 µM

C[C@H](Cc1ccc(O)c(O)c1)[C@@H](C)Cc1ccc(O)c(O)c1 [NDGA, meso-1,4-bis (3,4-dihydroxyphenyl)-2,3-dimethylbutane]
effectiveness against human breast adenocarcinoma (MX-1) [3]: particularly effective | absorption of sunlight ([4]; result in words): strongly absorb sunlight at wavelengths known to produce sunburn | strong absorption in the ultraviolet region ([4]; solution in methanol): 2816 Angstroms | screening result [5]: negative results | ED(50) [6]: 13.62 Micromoles | ED(75) [6]: 25.66 Micromoles | ED(90) [6]: 48.33 Micromoles | ED(95) [6]: 74.34 Micromoles | effectiveness in treating hepatic and colon carcinoma [7]: effective in treating hepatic and colon carcinoma | enhancement of X-ray radiation effectiveness (tumor cells): enhance the X-ray radiation effectiveness of the tumor cells without radiation toxicity to surrounding uninvolved skin | clinical outcome (human cancer patients): some positive results | Tumor Free 60 Days [1]: 4/5 | Tumor Recurrence [1]: 0 | effectiveness against lung squamous cell carcinoma (LX-1) [8]: particularly effective | No. Tumor Colonies Surviving ([9]; 5 MicroMolar): 229.7 ± 10.9 | No. Tumor Colonies Surviving ([9]; 10 MicroMolar): 173.3 ± 23.3 | No. Tumor Colonies Surviving ([9]; 18 microMolar): 190 ± 16.3 | No. Tumor Colonies Surviving ([9]; 27 microMolar): 40 ± 16.3 | No. Tumor Colonies Surviving ([9]; 56 microMolar): 3.3 ± 4.7 | inhibition at 10 µM ([9]; Canis lupus familiaris, 10 MicroMolar, survival of clonogenic cells relative to nontreated control): 82.5% | inhibition at 18 µM ([9]; Canis lupus familiaris, 18 microMolar, survival of clonogenic cells relative to nontreated control): 90.9% | inhibition at 27 µM ([9]; Canis lupus familiaris, 27 microMolar, survival of clonogenic cells relative to nontreated control): 98.1% | inhibition at 56 µM ([9]; Canis lupus familiaris, 56 microMolar, survival of clonogenic cells relative to nontreated control): 99.8% | effectiveness against melanoma (B-16) (melanoma (B-16)): particularly effective | susceptibility to oxidation [10]: susceptible to oxidation | EC50 ([2]; 50% cell growth inhibition, ± SD, read-out: Calculated ED(50)): 17.6 ± 4.07 µM | IC75 ([2]; 75% cell growth inhibition, ± SD, read-out: Calculated ED(75)): 26.6 ± 12.1 µM | IC90 ([2]; 90% cell growth inhibition, ± SD, read-out: Calculated ED(90)): 41.1 ± 28.1 µM | IC95 ([2]; 95% cell growth inhibition, ± SD, read-out: Calculated ED(95)): 55.9 ± 46.8 µM | EC50 ([2]; comparison with known anticancer drugs (Table 5B), read-out: ED(50) (the source's name)): 17.6 µM | reduction of the potential of tumor induction by DMBA (tumor induction by DMBA): significantly reduce the potential of tumor induction by DMBA | prevention of TPA tumor promotion (TPA tumor promotion): nearly completely prevent TPA tumor promotion | inhibition at 18 µM [11, 12]: 32.4% | inhibition at 18 µM [11, 13]: 20.9% | inhibition at 18 µM [11, 14]: 36.7% | inhibition at 18 µM [11, 15]: 39.5% | inhibition at 27 µM [11, 12]: 47% | inhibition at 27 µM [11, 13]: 32.8% | inhibition at 27 µM [11, 14]: 58.9% | inhibition at 27 µM [11, 15]: 49.3% | inhibition at 56 µM [11, 12]: 45.3% | inhibition at 56 µM [11, 13]: 33% | inhibition at 56 µM [11, 14]: 62.2% | inhibition at 56 µM [11, 15]: 40.7% | inhibiting colony growth over the duration of the assay ([11]; especially noticable at 27 and 56 microMolar NDGA): uniformly successful in inhibiting colony growth
